From patent US8142812B2, “Chemical carrier based on a beta-limit dextrin” (Glycologic Limited, priority 2002, dated 2012) come the findings set out here.

This data set can be described thus: Drug interaction and stability with β-limit dextrin in solution. The class given is physicochemical. An excerpt: There are many potential applications with respect to dispersing and solubilising insoluble compounds. […] Drug interaction and stability with β-limit dextrin in solution
Setting [1] is: drug 1% in β-limit dextrin (5%).
Where [2] appears, read: drug 1% in β-limit dextrin (10%).

SMILES strings stand for the structures.

In the case of `O=C1O[C@H]([C@@H](O)CO)C(O)=C1O` [Ascorbic acid], the “Drug interaction and stability in solution” value is on record as “Dissolved” (drug 1% in Water), “Dissolved” under setting [1] and “Dissolved” under setting [2].
Turning to `CC(=O)Oc1ccccc1C(=O)O` [Aspirin], the “Drug interaction and stability in solution” value (drug 1% in Water) was “Not suspended”; the “Drug interaction and stability in solution” value under setting [1] was “Suspended”; the “Drug interaction and stability in solution” value under setting [2] is recorded as “Suspended”.
Regarding `Cn1c(=O)c2[nH]cnc2n(C)c1=O` [Theophylline], the “Drug interaction and stability in solution” value is on record as “Not suspended” (drug 1% in Water), “Suspended” under setting [1] and “Suspended” under setting [2].
